Where a name gives a salt, the structure may show the parent alone.

The target of experiment [1] is αvβ1 (Homo sapiens, UniProt P05556+P06756). Nature of the experiment: Solid Phase Integrin αvβ1 Assay. It is filed as binding. The protocol:
(§1) The compounds exemplified in this document were tested for their ability to inhibit αvβ1 and αvβ6 in below described solid phase integrin assays.
Solid Phase Integrin αvβ1 Assay
96-well microtiter plates (4 HBX Immulon; Thermo Fisher Scientific, Waltham, MA) were coated with 100 μL/well of 1 μg/mL recombinant TGFb1-LAP in TBS at 4° C., overnight. The coating solution was removed, and plates were blocked with 200 μL/well of blocking and binding buffer (2% BSA/TBST, 1 mM MnCl2) at room temperature for 1 hr. Blocking buffer was removed and 50 μL of binding buffer and testing compounds were added. 50 μL of diluted αvβ1 (0.2 ug/mL in binding buffer) was added to wells (100 μL/well total) for and plates incubated for 90 min at room temperature. Wells were washed thrice with washing buffer (TBS, 0.05% Tween, 1 mM MnCl2) and plates were incubated with 100 μL/well of a 1:12500 dilution of streptavidin-horseradish peroxidase conjugate (Thermo Fisher Scientific) in binding buffer for 20 min at room temperature. Bound protein was detected using the substrate TMB. The IC50 values for testing compounds were calculated by Levenberg-Marquardt four parameter fitting logistics.

Experiment [2] deals with αvβ6 (Homo sapiens, UniProt P06756+P18564). Nature of the experiment: Solid Phase Integrin αvβ6 Assay. The format is binding. The protocol:
as §1
Solid Phase Integrin αvβ6 Assay
96-well microtiter plates (4 HBX Immulon; Thermo Fisher Scientific, Waltham, MA) were coated with 100 μL/well of 1 μg/mL recombinant TGFb1-LAP in TBS at 4° C., overnight. The coating solution was removed, and plates were blocked with 200 μL/well of blocking and binding buffer (2% BSA/TBST, 1 mM MnCl2) at room temperature for 1 hr. Blocking buffer was removed and 50 uL of binding buffer and testing compounds were added. 50 μL of diluted αvβ6 (0.2 μg/mL in binding buffer) was added to wells (100 uL/well total) and plates incubated for 1 hr at room temperature. Wells were washed thrice with washing buffer (TBS, 0.05% Tween, 1 mM MnCl2) and plates were incubated with 100 μL/well of a 1:12500) dilution of streptavidin-horseradish peroxidase conjugate (Thermo Fisher Scientific) in binding buffer for 20 min at room temperature. Bound protein was detected using the substrate TMB. The IC50 values for testing compounds were calculated by Levenberg-Marquardt four parameter fitting logistics.

Chain of αvβ1 (P06756 31-992 limits assumed): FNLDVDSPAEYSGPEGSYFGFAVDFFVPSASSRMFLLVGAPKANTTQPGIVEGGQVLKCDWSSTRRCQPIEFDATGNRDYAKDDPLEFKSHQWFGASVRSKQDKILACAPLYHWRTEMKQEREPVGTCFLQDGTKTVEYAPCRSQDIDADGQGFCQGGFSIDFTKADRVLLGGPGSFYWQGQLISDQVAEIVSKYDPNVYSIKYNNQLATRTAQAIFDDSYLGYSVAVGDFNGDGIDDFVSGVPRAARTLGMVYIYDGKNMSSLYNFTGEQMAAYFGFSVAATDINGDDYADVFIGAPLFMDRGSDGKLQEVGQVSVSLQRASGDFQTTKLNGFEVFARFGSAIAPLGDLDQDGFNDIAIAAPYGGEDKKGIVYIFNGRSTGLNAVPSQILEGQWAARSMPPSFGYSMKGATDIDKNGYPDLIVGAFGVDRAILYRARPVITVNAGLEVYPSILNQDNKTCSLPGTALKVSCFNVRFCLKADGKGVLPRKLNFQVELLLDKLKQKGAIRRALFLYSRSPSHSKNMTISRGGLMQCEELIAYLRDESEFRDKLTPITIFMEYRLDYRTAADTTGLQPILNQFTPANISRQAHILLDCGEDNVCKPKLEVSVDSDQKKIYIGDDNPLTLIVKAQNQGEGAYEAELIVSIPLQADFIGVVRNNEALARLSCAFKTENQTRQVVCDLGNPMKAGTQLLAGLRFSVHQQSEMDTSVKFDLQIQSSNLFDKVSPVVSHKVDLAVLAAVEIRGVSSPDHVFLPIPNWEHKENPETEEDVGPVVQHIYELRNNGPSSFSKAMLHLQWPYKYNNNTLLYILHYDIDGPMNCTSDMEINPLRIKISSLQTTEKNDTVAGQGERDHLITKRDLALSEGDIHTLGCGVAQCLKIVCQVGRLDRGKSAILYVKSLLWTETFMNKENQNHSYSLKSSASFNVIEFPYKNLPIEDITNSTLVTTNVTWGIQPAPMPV
Chain of αvβ1 (P05556 21-728 limits assumed): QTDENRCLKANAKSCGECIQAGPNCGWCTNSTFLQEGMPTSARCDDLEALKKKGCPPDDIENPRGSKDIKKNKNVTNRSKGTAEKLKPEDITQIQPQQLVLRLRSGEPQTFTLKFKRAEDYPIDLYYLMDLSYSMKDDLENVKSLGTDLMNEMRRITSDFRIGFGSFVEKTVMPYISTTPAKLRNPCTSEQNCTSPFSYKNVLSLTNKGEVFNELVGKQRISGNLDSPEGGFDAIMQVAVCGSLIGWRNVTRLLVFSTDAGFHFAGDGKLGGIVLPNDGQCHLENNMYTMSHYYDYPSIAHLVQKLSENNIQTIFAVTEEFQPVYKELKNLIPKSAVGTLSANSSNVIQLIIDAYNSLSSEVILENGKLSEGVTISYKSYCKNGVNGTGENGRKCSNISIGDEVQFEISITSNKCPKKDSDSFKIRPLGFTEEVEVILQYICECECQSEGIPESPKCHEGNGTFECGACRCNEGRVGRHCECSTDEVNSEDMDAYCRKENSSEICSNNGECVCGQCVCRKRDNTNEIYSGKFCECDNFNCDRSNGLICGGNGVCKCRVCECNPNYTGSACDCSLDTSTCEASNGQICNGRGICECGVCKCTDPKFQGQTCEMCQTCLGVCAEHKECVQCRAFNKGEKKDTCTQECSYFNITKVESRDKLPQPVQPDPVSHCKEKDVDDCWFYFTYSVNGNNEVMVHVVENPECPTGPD
Chain of αvβ6 (P06756 31-992 limits assumed): as the sequence (P06756 31-992 limits assumed) above
Chain of αvβ6 (P18564 22-707 limits assumed): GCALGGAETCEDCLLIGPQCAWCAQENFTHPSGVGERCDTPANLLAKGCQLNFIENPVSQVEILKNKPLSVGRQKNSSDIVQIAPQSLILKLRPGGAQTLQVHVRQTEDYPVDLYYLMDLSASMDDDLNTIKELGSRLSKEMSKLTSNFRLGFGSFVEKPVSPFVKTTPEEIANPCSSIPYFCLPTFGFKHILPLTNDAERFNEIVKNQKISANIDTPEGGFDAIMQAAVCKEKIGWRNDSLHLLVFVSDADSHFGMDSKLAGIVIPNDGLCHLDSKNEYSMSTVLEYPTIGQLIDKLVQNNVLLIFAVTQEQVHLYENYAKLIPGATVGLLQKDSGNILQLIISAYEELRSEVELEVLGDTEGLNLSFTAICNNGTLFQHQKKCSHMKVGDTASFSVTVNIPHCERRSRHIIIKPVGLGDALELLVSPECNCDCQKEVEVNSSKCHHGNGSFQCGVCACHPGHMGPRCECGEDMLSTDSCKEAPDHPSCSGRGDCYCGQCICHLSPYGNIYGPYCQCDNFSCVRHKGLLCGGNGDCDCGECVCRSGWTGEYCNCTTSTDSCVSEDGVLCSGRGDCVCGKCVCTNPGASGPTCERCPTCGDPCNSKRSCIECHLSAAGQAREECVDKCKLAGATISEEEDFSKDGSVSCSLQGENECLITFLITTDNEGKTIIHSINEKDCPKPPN

As a reminder, the IC50 is the concentration needed to halve the response being measured. High values mean a need for much substance, low ones inhibition by little substance. With `Nc1nnc(C(=O)N[C@@H](CNC(=O)[C@@H]2CCCN(CCCc3ccc4c(n3)NCCC4)C2)C(=O)O)o1` [Compound 348], the IC50 in experiment [1] and in experiment [2] was < 100 nM throughout.

On to `CC1(C)CN(c2cc([C@@H](CO[C@@H]3CCCN(CCCc4ccc5c(n4)NCCC5)C3)CC(=O)O)ccc2Cl)CCO1` [Compound 647], for which the IC50 in experiment [1] and in experiment [2] was < 100 nM in each case.

Regarding `O=C(N[C@@H](CCO[C@@H]1CCCN(CCCc2ccc3c(n2)NCCC3)C1)C(=O)O)c1cc(Cl)cc(Cl)c1` [Compound 488], the IC50 in experiment [1] and in experiment [2] was < 100 nM throughout.

Turning to `CN(C[C@@H]1CCCN(CCCc2ccc3c(n2)NCCC3)C1)[C@@H](CC(=O)O)c1cccc(C2CC2)c1` [Compound 530], the IC50 in experiment [1] and in experiment [2] was > 1000 nM throughout.

With `C[C@@H]1C[C@@H](C(=O)NC[C@H](C(=O)O)c2ccc3ccccc3c2)CN(CCCc2ccc3c(n2)NCCC3)C1` [Compound 632], the IC50 in experiment [1] and in experiment [2] was 100 to 1000 nM each time.

On to `O=C(N[C@@H](CCO[C@@H]1CCCN(CCCc2ccc3c(n2)NCCC3)C1)C(=O)O)c1ccccc1` [Compound 469], for which the IC50 in experiment [1] and in experiment [2] was < 100 nM in each case.

For the molecule `CN1CCc2ccc(S(=O)(=O)N3CCC[C@@H](C(=O)N[C@@H](CNC(=O)[C@@H]4CCCN(CCCc5ccc6c(n5)NCCC6)C4)C(=O)O)C3)cc21` [Compound 267, (S)-2-((R)-1-((1-methylindolin-6-yl)sulfonyl)piperidine-3-carboxamido)-3-((R)-1-(3-(5,6,7,8-tetrahydro-1,8-naphthyridin-2-yl)propyl)piperidine-3-carboxamido)propanoic acid], the IC50 in experiment [1] and in experiment [2] was < 100 nM each time.

Turning to `O=C(O)C[C@H](NC(=O)[C@@H]1CCCN(CCCc2ccc3c(n2)NCCC3)C1)c1ccc(C2CC2)cc1` [Compound 557], the IC50 was > 1000 nM in experiment [1] and 100 to 1000 nM in experiment [2].

Turning to `O=C(O)C(c1ccccc1)C(O)CO[C@@H]1CCCN(CCCc2ccc3c(n2)NCCC3)C1` (some centres unmarked) [Compound 610], the IC50 in experiment [1] and in experiment [2] was > 1000 nM in each case.

For `CC1(C)CN(c2cccc([C@@H](CNC(=O)[C@@H]3CCCN(CCCc4ccc5c(n4)NCCC5)C3)C(=O)O)c2)CCO1` [Compound 595], the half-maximal inhibitory concentration (IC50) in experiment [1] and in experiment [2] was < 100 nM each time.

`O=C(O)[C@@H](CO[C@@H]1CCCN(CCCc2ccc3c(n2)NCCC3)C1)Nc1ncnc2ccccc12` [Compound 408]: the half-inhibitory concentration (IC50) in experiment [1] and in experiment [2] was > 1000 nM throughout.

As to `O=C(NC[C@@H](C(=O)O)c1ccc2c(c1)CCC2)[C@@H]1CCCN(CCCc2ccc3c(n2)NCCC3)C1` [Compound 254-B, 2-(2,3-dihydro-1H-inden-5-yl)-3-((R)-1-(3-(5,6,7,8-tetrahydro-1,8-naphthyridin-2-yl)propyl)piperidine-3-carboxamido)propanoic acid], the IC50 in experiment [1] and in experiment [2] was < 100 nM throughout.

As to `O=C(O)[C@@H](CCO[C@@H]1CCCN(CCCc2ccc3c(n2)NCCC3)C1)c1cccc(-c2ccccc2)c1` [Compound 330], the results for the IC50 in experiment [1] and in experiment [2] were > 1000 nM and < 100 nM, respectively.

Take `O=C(O)[C@@H](CO[C@@H]1CCCN(CCCc2ccc3c(n2)NCCC3)C1)NC(=O)C12CCC(CC1)CC2` [Compound 382]: the IC50 in experiment [1] and in experiment [2] was > 1000 nM each time.

For `O=C(O)C[C@@H](NC(=O)[C@@H]1CCCN(CCCc2ccc3c(n2)NCCC3)C1)c1ccc2ccccc2c1` [Compound 206, (R)-3-(naphthalen-2-yl)-3-((R)-1-(3-(5,6,7,8-tetrahydro-1,8-naphthyridin-2-yl)propyl)piperidine-3-carboxamido)propanoic acid hydrochloride], the IC50 in experiment [1] and in experiment [2] was < 100 nM each time.

With `O=C(NC[C@@H](C(=O)O)c1cccc2c1CCCC2)[C@@H]1CCCN(CCCc2ccc3c(n2)NCCC3)C1` [Compound 253-B, 3-((R)-1-(3-(5,6,7,8-tetrahydro-1,8-naphthyridin-2-yl)propyl)piperidine-3-carboxamido)-2-(5,6,7,8-tetrahydronaphthalen-1-yl)propanoic acid], the IC50 in experiment [1] is 100 to 1000 nM; in experiment [2], > 1000 nM.

Turning to `O=C(O)[C@@H](CCO[C@@H]1CCCN(CCCc2ccc3c(n2)NCCC3)C1)c1cccc2c1cnn2CC1CC1` [Compound 486], the IC50 was 100 to 1000 nM in experiment [1] and < 100 nM in experiment [2].

Regarding `O=C(NC[C@@H](C(=O)O)c1cncc(-c2ccccc2)c1)[C@@H]1CCCN(CCCc2ccc3c(n2)NCCC3)C1` [Compound 627], the IC50 in experiment [1] and in experiment [2] was < 100 nM throughout.

`O=C(NC[C@H](C(=O)O)c1cncc(-c2ccccc2)c1)[C@@H]1CCCN(CCCc2ccc3c(n2)NCCC3)C1` [Compound 620]: the IC50 in experiment [1] and in experiment [2] was < 100 nM throughout.

For `O=C(O)C[C@@H](NC(=O)[C@@H]1CCCN(CCCc2ccc3c(n2)NCCC3)C1)c1cccc(C2CC2)c1F` [Compound 344], the IC50 in experiment [1] and in experiment [2] was < 100 nM throughout.

Consider `O=C(N[C@@H](CNC(=O)[C@@H]1CCCN(CCCc2ccc3c(n2)NCCC3)C1)C(=O)O)C1CC2CCC1CC2` (some centres unmarked) [Compound 338], for which the IC50 in experiment [1] and in experiment [2] was < 100 nM throughout.

Take `O=C(O)[C@H](CCO[C@@H]1CCCN(CCCc2ccc3c(n2)NCCC3)C1)Nc1ncnc2ccsc12` [Compound 470]: the IC50 in experiment [1] and in experiment [2] was 100 to 1000 nM in each case.

In the case of `O=C(O)[C@@H](CCO[C@@H]1CCCN(CCCc2ccc3c(n2)NCCC3)C1)c1ccc(C2CC2)cc1` [Compound 484], the IC50 in experiment [1] and in experiment [2] was > 1000 nM throughout.

Take `O=C(O)C[C@@H](CO[C@@H]1CCCN(CCCc2ccc3c(n2)NCCC3)C1)c1cncc(N2CCC(F)(F)CC2)c1` [Compound 649]: the concentration for half-maximal inhibition (IC50) in experiment [1] and in experiment [2] was < 100 nM throughout.

For the molecule `O=C(NC[C@@H](Nc1cncc(-c2ccccc2)c1)C(=O)O)[C@@H]1CCCN(CCCc2ccc3c(n2)NCCC3)C1` [Compound 376], the IC50 in experiment [1] and in experiment [2] was < 100 nM in each case.

On to `O=C(NC[C@H](Nc1ccnc2ccccc12)C(=O)O)[C@@H]1CCCN(CCCc2ccc3c(n2)NCCC3)C1` [Compound 273, (S)-2-(quinolin-4-ylamino)-3-((R)-1-(3-(5,6,7,8-tetrahydro-1,8-naphthyridin-2-yl)propyl)piperidine-3-carboxamido)propanoic acid], for which the half-maximal inhibitory concentration (IC50) in experiment [1] and in experiment [2] was < 100 nM each time.

For `O=C(O)CC(CO[C@@H]1CCCN(CCc2ccc3c(n2)NCCC3)C1)c1ccccc1` (some centres unmarked) [Compound 335], the 50% inhibitory concentration (IC50) in experiment [1] and in experiment [2] was 100 to 1000 nM in each case.

With `CC1(C)COCCN1c1cccc([C@@H](CNC(=O)[C@@H]2CCCN(CCCc3ccc4c(n3)NCCC4)C2)C(=O)O)c1` [Compound 597], the IC50 in experiment [1] and in experiment [2] was < 100 nM throughout.

Consider `O=C(O)C[C@H](NC(=O)[C@@H]1CCCN(CCCc2ccc3c(n2)NCCC3)C1)c1ccc2c(c1)CCC2` [Compound 201-A, 3-(2,3-dihydro-1H-inden-5-yl)-3-((R)-1-(3-(5,6,7,8-tetrahydro-1,8-naphthyridin-2-yl)propyl)piperidine-3-carboxamido)propanoic acid hydrochloride], for which the IC50 was 100 to 1000 nM in experiment [1] and < 100 nM in experiment [2].

Regarding `O=C(O)[C@H](CCO[C@@H]1CCCN(CCc2ccc3c(n2)NCCC3)C1)Nc1ncnc2ccccc12` [Compound 386], the IC50 in experiment [1] and in experiment [2] was > 1000 nM each time.

With `O=C(O)C[C@H](NC(=O)[C@H]1CCCN(CCCc2ccc3c(n2)NCCC3)C1)c1ccccc1` [Compound 523], the IC50 in experiment [1] is 100 to 1000 nM; in experiment [2], < 100 nM.

With `CC1(CN[C@@H](CNC(=O)[C@@H]2CCCN(CCCc3ccc4c(n3)NCCC4)C2)C(=O)O)CCCCC1` [Compound 269, (S)-2-(((1-methylcyclohexyl)methyl)amino)-3-((R)-1-(3-(5,6,7,8-tetrahydro-1,8-naphthyridin-2-yl)propyl)piperidine-3-carboxamido)propanoic acid], the IC50 in experiment [1] was > 1000 nM; in experiment [2] it was 100 to 1000 nM.

Consider `O=C(O)C[C@@H](NC(=O)[C@@H]1CCCN(CCCc2ccc3c(n2)NCCC3)C1)c1ccccc1C1CC1` [Compound 345], for which the IC50 in experiment [1] and in experiment [2] was > 1000 nM throughout.

With `O=C(NC[C@H](C(=O)O)c1ccc(F)c(-c2ccccc2)c1)[C@@H]1CCCN(CCCc2ccc3c(n2)NCCC3)C1` [Compound 309], the IC50 in experiment [1] and in experiment [2] was < 100 nM in each case.

The record behind these values is patent US20240208968A1, “ALPHA V BETA 6 AND ALPHA V BETA 1 INTEGRIN INHIBITORS AND USES THEREOF” (DiCE Molecules SV, Inc., priority 2021, published 2024).
